Measured values published in patent US20040005623A1, “Method of determining tumor sensitivities to therapeutic drugs” (priority 2002, published 2004).

Columns and labels:
[1] = target: T1, KIT Val560Gly juxtamembrane regulatory type mutant (Homo sapiens, UniProt P10721, V560G); experiment: SCF-independent constitutive phosphorylation of Val560Gly mutant KIT expressed in COS cells; format: cell-based; conditions: inhibitor at 0.1 to 1 μM, FIG. 1 lanes 6-7
T1 construct: expressed in transfected cells; host or cells: COS cells
T1 sequence (P10721 26-976 V560G): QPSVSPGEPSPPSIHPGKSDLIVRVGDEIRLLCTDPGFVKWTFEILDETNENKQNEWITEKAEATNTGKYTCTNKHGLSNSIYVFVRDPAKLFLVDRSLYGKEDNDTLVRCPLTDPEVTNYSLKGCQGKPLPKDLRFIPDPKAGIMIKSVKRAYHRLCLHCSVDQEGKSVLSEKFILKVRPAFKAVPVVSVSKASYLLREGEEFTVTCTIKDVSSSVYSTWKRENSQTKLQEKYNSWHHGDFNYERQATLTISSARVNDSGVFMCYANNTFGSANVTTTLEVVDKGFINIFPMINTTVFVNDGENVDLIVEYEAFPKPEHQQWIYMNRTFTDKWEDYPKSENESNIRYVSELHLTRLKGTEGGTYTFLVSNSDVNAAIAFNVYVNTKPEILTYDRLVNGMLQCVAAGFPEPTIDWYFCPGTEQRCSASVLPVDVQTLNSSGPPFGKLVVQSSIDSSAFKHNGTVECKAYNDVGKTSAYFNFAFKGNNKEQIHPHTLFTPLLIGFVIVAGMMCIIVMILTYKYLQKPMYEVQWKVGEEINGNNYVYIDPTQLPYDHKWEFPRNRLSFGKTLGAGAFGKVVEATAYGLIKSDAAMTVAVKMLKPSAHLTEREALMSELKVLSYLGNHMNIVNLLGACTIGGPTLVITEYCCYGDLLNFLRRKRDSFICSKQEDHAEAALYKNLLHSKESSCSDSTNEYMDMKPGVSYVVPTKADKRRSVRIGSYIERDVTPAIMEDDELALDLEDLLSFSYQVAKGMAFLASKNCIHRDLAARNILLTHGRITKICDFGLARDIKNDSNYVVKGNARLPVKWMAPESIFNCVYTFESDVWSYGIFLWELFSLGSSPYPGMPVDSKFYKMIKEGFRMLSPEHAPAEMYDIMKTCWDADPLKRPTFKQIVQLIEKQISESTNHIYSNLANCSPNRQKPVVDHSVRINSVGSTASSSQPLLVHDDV
From the text: (§1) Two subclones of the human mast cell leukemia line HMC1 were used to determine if the wild type and mutant KIT enzymes were able to interact with 2 drug compounds, […] and SU9529. Set forth as SEQ ID NO:1 is a nucleotide sequence for the wild type KIT enzyme (amino acid sequence is set forth as SEQ ID NO:2). One subclone, HMC1.1, expressed a valine to glycine substitution in codon 560 (Val560Gly) of the KIT intracellular juxtamembrane region. The other, HMC1.2, expressed the Val560Gly mutation and a second substitution, aspartate to valine in codon 816 (Asp816Val) in the kinase enzymatic pocket. […] For additional study of wild type and specific mutant forms of KIT, COS cells were used for transient expression of human wild-type and mutated c-KIT complementary DNAs, as described previously by Ma et al., “Inhibition of spontaneous receptor phosphorylation by residues in putatitive α-helix in the KIT intracellular juxtamembrane region,” J. Biol. Chem., 274:13399-13402 (1999). ST1571 is a commercially available drug manufactured by Novartis and developed as an inhibitor of the c-abl gene product. ST1571 has been reported to inhibit wild-type KIT and KIT expressed by HMC1. The other compound, SU9529, is manufactured by SUGEN and has not yet been made commercially available, although it has been published. […]

[2] = test system: HMC1 line; conditions: at 1 μM; cited from earlier work
[3] = target: T2, wild-type KIT (Homo sapiens, UniProt P10721); conditions: has been reported; cited from earlier work
Target sequence in this assay (P10721 26-976, species assumed): as the sequence (P10721 26-976 V560G) above, with G535V counted along it

[4] = target: KIT expressed by HMC1 (Homo sapiens, UniProt P10721, V560G); conditions: has been reported; cited from earlier work
KIT expressed by HMC1, sequence (P10721 26-976 V560G): as the sequence (P10721 26-976 V560G) above

[5] = target: T2, wild-type KIT; experiment: SCF-induced phosphorylation of wild-type KIT transiently expressed in COS cells (antiphosphotyrosine blot); format: cell-based; set-up: expressed in transfected cells; host or cells: COS cells; conditions: inhibitor at 0.1 to 1 μM, 1 hour, FIG. 1 lanes 3-4
From the text: as §1
Target sequence in this assay (P10721 26-976): as the sequence (P10721 26-976 V560G) above, with G535V counted along it

inhibition of SCF-independent constitutive phosphorylation of Val560Gly KIT [1]: inhibit | inhibition of SCF-induced phosphorylation of wild-type KIT [5]: prevent the phosphorylation
SMILES: Cc1ccc(NC(=O)c2ccc(CN3CCN(C)CC3)cc2)cc1Nc1nccc(-c2cccnc2)n1 [ST1571]
previously reported ability to kill an HMC1 line [2]: kill | reported inhibition of wild-type KIT [3]: inhibit | reported inhibition of KIT expressed by HMC1 [4]: inhibit
